Data from patent US5792742A, “Fibrin-binding peptide fragments of fibronectin” (New York University, priority 1994, dated 1998).

Assays:
fibrin [1] = assay: Fibrin-SEPHAROSE affinity chromatography (binding and elution); design: species or system bovine
Protocol: Bovine fibrinogen was cross-linked to CNBr-activated SEPHAROSE™ (5 mg/ml beads) according to the manufacturer's instructions. Coupled fibrinogen was subsequently converted to fibrin by incubation with human thrombin to a final concentration of 5 NIH units/ml and 100 K.I. (kallikrein inhibitory) units/ml of aprotinin (in 0.05M Tris-HCI buffer, pH 7.6, containing 0.1M NaCl and 0.01M EDTA) for three hours, at room temperature (Gold, et al. (1983) Biochemistry 22, 4113-4119).
1.0M NaCl in 0.05M tris buffer, pH 8.0.
The fibrin-binding activity of the proteolytically derived 25.9 kDa fragment of Fn was determined by its ability to bind to a fibrin affinity matrix. […] FBB was used to equilibrate and wash the column. Following warming of the column to 22° C., the column was washed with FBB until absorbance at 280 nm (A280) was less than 0.01, and bound protein eluted with 0.05M Tris-HCl, 0.5M NaCl, 6M urea buffer, pH 7.6.
The module (500 μg/1.0 ml) was incubated for 4 hours (while rotating) at 4° C. in the presence of 1.0 ml fibrin-SEPHAROSE™ (5 mg fibrin/ml SEPHAROSE™ beads) equilibrated in […] Tris-HCl, 0.1M NaCl buffer, pH 7.6.
The 11 KDa peptide (50 μg/0.206 ml) was radiolabeled using the IODO-BEAD method (Pierce Chemical). The peptide was added to one IODO-BEAD in the presence of 100 μCi ^125 I (17.4 Ci/mg, New England Nuclear) and incubated on ice for 10 minutes. The bead was removed and the free ^125 I removed by chromatography through a PD10 column containing SEPHADEX™ G-25 (Pharmacia). […] The radioiodinated 11 kDa fibrin-binding peptide (500 μg/1.5 ml) was combined with 1 ml of fibrin-SEPHAROSE™ (5 mg fibrin/ml beads) equilibrated with 50 mM Tris-HCl, 0.1M NaCl buffer, pH 7.6, and rotated for 4 hours, at 4° C. The mixture was poured onto a disposable column (0.6 cm×8.0) and the unbound protein washed through. The column was equilibrated to room temperature and washed with the equilibration buffer.

[2] = Heparin affinity chromatography; format: binding; details: NaCl gradient in 0.05M tris buffer, pH 8.0
Source text: Upon warming the column to room temperature, a 25.9 kDa fragment was eluted with FBB (Peak a, FIG. 3). […] 1.0M NaCl in 0.05M tris buffer, pH 8.0. The yield of the 11 kDa fragment from the intact molecule was approximately 5% (w/w). This is the same as the theoretical yield. The extinction coefficient has been determined to be approximately 4.5, based on a comparison between A280 and protein concentration determination by Coomassie Protein Assay (Pierce Chemical Co.).

fibrin [3] = tested on: fibrin
Protocol: Since the anti-Fn detection system described for the ELISA above could not be used in Fn competition assays employing the intact Fn molecule or the 25.8 kDa proteolytic fragment, purified Fn was biotinylated using water soluble NHS-LC-Biotin (Pierce Chemm. Co.; according to the manufacturer's instructions) and binding to fibrin detected by alkaline phosphatase conjugated streptavidin (diluted 1/500 in FBBT/BSA) for 1 hour at 22° C., followed by the addition of p-nitrophenyl phosphate, as described above. To ensure that the biotinylation of the Fn had not affected its ability to bind to fibrin, fibrin-binding activity was tested by incubating increasing concentrations of biotinylated Fn (10-300 ng/0.1 ml FBB) with the fibrin-coated wells (200 ng) and detected (see FIG. 28A) using alkaline phosphatase-conjugated streptavidin and the reaction developed as described for Direct Elisa.
To compare the relative fibrin-binding affinities of the ^4 F1.^5 F1 recombinant module pair and the 25.9 kDa proteolytic fragment (^1 F1-^5 F1) with that of the native Fn molecule, these purified proteins were competed with biotinylated plasma Fn for binding to fibrin coated wells and the extent of inhibition of binding assessed by incubation with alkaline phosphatase-conjugated streptavidin. […] Biotinylated Fn (100 ng/0.1 ml FBB: 2.3 nM) was combined with increasing concentrations (0-10 μM) of either unlabeled Fn, the 25.9 kDa proteolytic fragment, or the separate ^4 F1.^5 F1, and ^10 F1 recombinant modules and incubated with the fibrin-coated microtiter wells for 1 hour at 22° C. […] Bound biotinylated Fn was quantitated as described above.

[4] = previously shown (Baron et al. 1990); cited from earlier work

For “25.9 kDa fragment: 25.9 kDa N-terminal proteolytic fibrin-binding fragment of fibronectin (^1 F1-^5 F1), residues 17-246 of SEQ ID NO:1”, the “% of protein applied eluted on warming the column to 22° C. (room temperature)” value (fibrin [1]; FBB buffer) was “approximately 8%”, the “% of protein applied eluted with 0.5M NaCl, 6.0M urea buffer” value (fibrin [1]; after warming to 22° C.) was “approximately 17%” and the “% of protein applied retained by fibrin-SEPHAROSE” value (fibrin [1]; binding at 4° C., 500 μg applied) was 25%. The “% of protein applied retained by fibrin-Sepharose with increasing amounts applied” value (fibrin [1]; increasing amounts applied to a fixed volume of fibrin-Sepharose) was 25%, the “relative affinity for fibrin (from elution conditions)” value (fibrin [1]; temperature change vs denaturing conditions (6M urea or 50% ethylene glycol) for elution) was “lower affinity” and the “NaCl concentration at elution from heparin affinity chromatography” value [2] was 0.25 M. For the same substance, the “fold higher concentration over intact Fn needed for 50% inhibition” value (fibrin [3]) was 7.5 fold, the “maximal inhibition of biotinylated Fn binding to fibrin” value (fibrin [3]; 10 μM of protein (5,000 molar excess)) was 75% and the IC50 (fibrin [3]; read-out: IC50, 50% inhibition of binding of biotinylated Fn to fibrin, biotinylated Fn 2.3 nM, 200 ng fibrin, 1 hour 22° C.) was 150 nM. The Ki (fibrin [3]; read-out: KI estimated from IC50 (Cheng and Prussoff)) was 145 nM and the “heparin-binding activity, affinity” value [4] was “intermediate”.
